We go through four molecules from patent publication US20240391956A1, “STAPLED PEPTIDES AND METHODS THEREOF” (FOG PHARMACEUTICALS, INC., priority 2023, published 2024).

*1 amine or outer side, *2 acyl side, *3 side chain or, on linkers, in order; H or OH if unused. Where a SMILES comes first, the peptide text is derived from it. Bridges are numbered along the chain shown (N, C = ends). [ ]: non-standard residue; d: D form. Phenylene(1,4-NHCOCH2)2 = O=C(C[*:1])Nc1ccc(NC(=O)C[*:2])cc1; dNle = CCCC[C@@H](N)C(=O)O

The target in assay [1] is T1, CHIP23-303 recombinant protein (Homo sapiens, UniProt Q9UNE7).
T1 construct: 6xHis (N, cleaved yes); TEV site (N, cleaved yes); made in house; host or cells: E. coli BL21 CodonPlus
T1 sequence (Q9UNE7 23-303): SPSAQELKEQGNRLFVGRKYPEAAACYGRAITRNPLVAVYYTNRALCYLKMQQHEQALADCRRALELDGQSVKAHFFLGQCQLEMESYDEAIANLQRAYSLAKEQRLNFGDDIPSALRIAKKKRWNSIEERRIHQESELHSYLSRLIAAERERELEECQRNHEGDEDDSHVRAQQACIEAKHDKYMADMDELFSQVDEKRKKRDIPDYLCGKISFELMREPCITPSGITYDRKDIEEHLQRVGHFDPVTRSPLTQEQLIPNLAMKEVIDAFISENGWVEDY
The assay can be described thus: Competition fluorescence polarization with CHIP23-303 and HSP70-derived probe 5FAM-bAla-[…]. The format is binding. The following applies: competition FP, 400 nM CHIP23-303, 20 nM probe, 1 hour at room temperature; read-out: Measured KD. The procedure: For the competition FP of CHIP, stapled peptides at 10 mM in DMSO were serially diluted 1:3 in DMSO for a total of 11 concentrations using a Mosquito LV (SPT Labtech), then diluted 1000-fold in buffer (1×HBS-P+, Cytiva) in duplicate by the Mosquito LV (SPT Labtech) into a black polystyrene 384-well plate (Corning) (11-point three-fold peptide dilution series with top concentration=10 μM). The assay was performed with 400 nM CHIP23-303 recombinant protein as target, and 20 nM BCHIP-binding peptide as probe (5FAM-bAla-[…] (SEQ ID NO: 18), derived from HSP70). The plate was incubated and protected from light for 1 hour at room temperature prior to reading. Reads were performed on a CLARIOstar plate reader (BMG Labtech) with excitation at 485 nm, emission at 525 nm, and cutoff at 504 nm. Data were fitted to a 1:1 binding model with Hill slope using an in-house script.
In some embodiments, CHP polypeptide was prepared as follows: CHIP (residues 23-303 for competition FP and 23-154 for crystallography) with an N-terminal 6×His-TEV tag was recombinantly expressed in E. coli BL21 CodonPlus cells (Agilent) from a pET21b-derived expression vector (Novagen) (“6×His” disclosed as SEQ ID NO: 13). The cells were induced at OD600=0.6 with 1 mM IPTG for 4 hours at 37° C., then harvested and resuspended in 50 mM Tris-HCl pH 8.0, 500 mM NaCl, 10 mM imidazole, 10% glycerol, and 10 mM ß-me. For purification, the pellet was lysed with a tip sonicator with power level set at 400 W, 3 seconds on and 3 seconds off for 20 min, pelleted at 22,000×g for 30 minutes at 4° C. The supernatant was purified with Ni-NTA resin (Qiagen), eluting with 250 mM imidazole. Eluted proteins were pooled, concentrated, and TEV-cleaved by adding TEV protease at a ratio of 1:10 protease to protein and incubated overnight at 4° C. TEV-cleaved proteins were loaded onto a Superdex™ 10/300 75 pg (Cytiva) SEC column, and eluted in 50 mM HEPES, pH 8.0, 150 mM NaCl, 10% glycerol, 2 mM DTT. Fractions containing pure protein were collected, pooled, concentrated to 30 mg/mL and stored at −80° C. […]
A general note: In fluorescence polarisation assays a small probe gives low polarisation when free and higher when bound to something large.

The target of another assay is T2, MDM2 (residues 25-109) (Homo sapiens, UniProt Q00987).
T2 construct: MDM2 (residues 25-109) with an N-terminal 6×His-yBBr-TEV tag was recombinantly expressed in E. coli; made in house; host or cells: E. coli BL21 CodonPlus
The assay can be described thus: SPR binding to immobilized biotinylated MDM2 25-109 (Biacore 8K). The procedure: SPR experiments were performed on a Biacore 8K (Cytiva) instrument at 25° C. in 1×HBS-P+ buffer (Cytiva) with 1% DMSO. A SA Series S sensor chip was docked and pre-conditioned with three injections of 50 mM NaOH/1 M NaCl to remove unbound streptavidin from the surface. Biotinylated MDM2^25-109 were diluted to 2 μg/mL in running buffer and immobilized to channels 1 through 8 at 5 μL/min for 71 sec for a final immobilization level of ˜390 RU. Peptides were diluted to 5 μM in running buffer then serially diluted 2-fold for a total of seven concentrations with one blank (7-point two-fold peptide dilution series with top concentration=5 μM and bottom concentration=78 nM). Compounds were injected over the immobilized and reference surfaces at 30 μL/min for 60 sec and then allowed to dissociate for 180 sec without surface regeneration (N=1). Data was analyzed using Biacore Insight Evaluation software (Cytiva). Sensorgrams were double referenced, with most of them fitted to a 1:1 steady state affinity model, with a few fitted with both steady state affinity model and kinetics model.
MDM2 expression: MDM2 (residues 25-109) with an N-terminal 6×His-yBBr-TEV tag was recombinantly expressed in E. coli BL21 CodonPlus cells (Agilent) from pET-derived expression vectors (Novagen) (“6×His” disclosed as SEQ ID NO: 13). The cells were induced at OD600=0.6 with 1 mM isopropyl β-D-1-thiogalactopyranoside (IPTG) for 4 hours at 37° C., then harvested and resuspended in 25 mM Tris-HCl pH 7.5, 300 mM NaCl, 10% glycerol, 1 mM PMSF. For purification, the pellet was lysed with a tip sonicator, and pelleted at 22,000×g for 30 minutes at 4° C. The pellets were washed with 20 mM Tris-HCl pH 8.0, 150 mM NaCl, 1 M urea, 1.0% triton X-100 three times, and the inclusion body was dissolved in 20 mM Tris-HCl pH 8.0, 150 mM NaCl, 8 M urea, and 2 mM ß-mercaptoethanol (ß-me). The supernatant was purified with Ni-NTA resin (Qiagen), eluting with 20 mM Tris-HCl pH 8.0, 150 mM NaCl, 8 M urea, 2 mM ß-me, and 250 mM imidazole. Protein elutes were diluted to ˜0.1 mg/mL and dialyzed into buffers containing 10 mM Tris-HCl pH 8.0, 150 mM NaCl, 2 mM ß-me, with 4, 2, 1, or 0 M urea, at 4° C. for 8 hours for each urea gradient. Urea-free proteins were concentrated with Amicon spin filters (Millipore Sigma) to ˜1 mg/mL and biotinylated via the yBBr reaction according to reported procedures (e.g., reported in Yin, J. et al. Genetically encoded short peptide tag for versatile protein labeling by Sfp phosphopantetheinyl transferase. Proceedings of the National Academy of Sciences 102, 15815-15820 (2005)). Biotinylated proteins were pooled, concentrated, and loaded onto a Superdex™ 10/300 75 pg (Cytiva) SEC column and eluted in 20 mM HEPES pH 7.0, 200 mM NaCl, 5% glycerol, 0.5 mM tris(2-carboxyethyl) phosphine (TCEP). Fractions containing pure protein were collected, pooled, concentrated to ˜1 mg/mL and stored at −80° C. In some embodiments, such MDM2 preparation were utilized in biochemical assays.
(SPR reads the build-up and loss of mass on a sensor chip optically.)

What is called Kd is the concentration at which binding is half-saturated.

T2 sequence (Q00987 25-109): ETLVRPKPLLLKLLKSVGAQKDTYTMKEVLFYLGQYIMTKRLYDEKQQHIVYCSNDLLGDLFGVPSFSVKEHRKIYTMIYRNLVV

As for `CC[C@@H](C)[C@@H](NC(=O)[C@@H](CC(N)=O)NC(=O)[C@@H](Cc1ccc(O)cc1)NC(=O)[C@H]1CSCC(=O)Nc2ccc(cc2)NC(=O)CSC[C@@H](NC(=O)[C@@H](CC(=O)O)NC(=O)[C@@H](CCC(=O)O)NC(=O)[C@@H](Cc2c[nH]c3ccccc23)NC(=O)[C@H]2CCCN2C(C)=O)C(=O)N[C@H](C)C(=O)N[C@H](Cc2c[nH]c3ccccc23)C(=O)N[C@H](Cc2ccccc2)C(=O)N[C@H](C)C(=O)N[C@H](Cc2c[nH]c3ccccc23)C(=O)N[C@H](C)C(=O)N1)C(N)=O` [H201, Ac-pwedcawfawacyni-NH2] (Ac-[dP][dW][dE][dD][dC][dA][dW][dF][dA][dW][dA][dC][dY][dN][dI]-NH2; linker 5-12 via Phenylene(1,4-NHCOCH2)2), the Kd in assay [1] was determined as 470 nM.
For `CC[C@@H](C)[C@@H](NC(=O)[C@H]1CSCC(=O)Nc2ccc(cc2)NC(=O)CSC[C@@H](NC(=O)[C@@H](CC(C)C)NC(=O)[C@@H](CC(=O)O)NC(=O)[C@@H](CC(C)C)NC(=O)[C@H]2CCCN2C(C)=O)C(=O)N[C@H](Cc2ccc(O)cc2)C(=O)N[C@H](Cc2c[nH]c3ccccc23)C(=O)N[C@H](C)C(=O)N[C@H](CO)C(=O)N[C@H](CC(C)C)C(=O)N[C@H](Cc2c[nH]cn2)C(=O)N1)C(=O)N[C@@H](C(=O)N[C@H](CO)C(N)=O)C(C)C` [H204, Ac-pldlcywaslhcivs-NH2] (Ac-[dP][dL][dD][dL][dC][dY][dW][dA][dS][dL][dH][dC][dI][dV][dS]-NH2; linker 5-12 via Phenylene(1,4-NHCOCH2)2), the Kd in assay [1] amounted to 770 nM.
Turning to `CSCC[C@@H](NC(=O)[C@@H](CCC(=O)O)NC(=O)[C@@H](Cc1c[nH]cn1)NC(=O)[C@H]1CCCN1C(C)=O)C(=O)N[C@@H]1CSCC(=O)Nc2ccc(cc2)NC(=O)CSC[C@H](C(=O)N[C@H](CCCNC(=N)N)C(=O)N[C@H](Cc2ccc(O)cc2)C(=O)N[C@H](CO)C(N)=O)NC(=O)[C@@H](Cc2ccc(O)cc2)NC(=O)[C@@H](C)NC(=O)[C@@H](CC(=O)O)NC(=O)[C@@H](C)NC(=O)[C@@H](Cc2c[nH]c3ccccc23)NC(=O)[C@@H](Cc2ccc(O)cc2)NC1=O` [H203, Ac-phemcywadaycrys-NH2] (Ac-[dP][dH][dE][dM][dC][dY][dW][dA][dD][dA][dY][dC][dR][dY][dS]-NH2; linker 5-12 via Phenylene(1,4-NHCOCH2)2), the Kd in assay [1] stood at 550 nM.
Molecule `CCCC[C@H]1NC(=O)[C@@H](C)NC(=O)[C@@H](C)NC(=O)[C@@H](CCCC)NC(=O)[C@@H](C(C)C)NC(=O)[C@H](NC(=O)[C@@H](CCC(N)=O)NC(=O)[C@@H](Cc2c[nH]c3ccccc23)NC(=O)[C@@H](CO)NC(=O)[C@@H](C)NC(=O)[C@H]2CCCN2C(=O)[C@@H](CC(=O)O)NC(C)=O)CSCC(=O)Nc2ccc(cc2)NC(=O)CSC[C@H](C(=O)N[C@@H](C(=O)N[C@H](CC(C)C)C(=O)N[C@H](CC(=O)O)C(N)=O)C(C)C)NC(=O)[C@@H](CC(=O)O)NC1=O` [H109, Ac-dpaswqcvm*aam*dcvld-NH2] (Ac-[dD][dP][dA][dS][dW][dQ][dC][dV][dNle][dA][dA][dNle][dD][dC][dV][dL][dD]-NH2; linker 7-14 via Phenylene(1,4-NHCOCH2)2) came in with a Kd on MDM2 (residues 25-109) of 2400 nM.
